Measured values as given in ChEMBL document CHEMBL1143006, “Examination of acylated 4-aminopiperidine-4-carboxylic acid residues in the phosphotyrosyl+1 position of Grb2 SH2 domain-binding tripeptides” (J Med Chem, 2007).

Biological target: Growth factor receptor-bound protein 2 (Homo sapiens, UniProt P62993)
Assay: Binding affinity to Grb2-SH2 domain by surface plasmon resonance

Chain of Growth factor receptor-bound protein 2 (P62993 whole entry, the tested form may be a part): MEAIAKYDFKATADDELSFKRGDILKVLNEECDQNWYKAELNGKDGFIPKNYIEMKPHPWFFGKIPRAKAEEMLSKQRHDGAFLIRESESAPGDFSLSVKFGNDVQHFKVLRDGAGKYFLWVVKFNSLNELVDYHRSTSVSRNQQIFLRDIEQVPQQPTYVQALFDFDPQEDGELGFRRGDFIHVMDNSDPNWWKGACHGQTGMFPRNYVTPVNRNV

Row | SMILES | Kd
1 | NC(=O)C[C@H](NC(=O)C1(NC(=O)[C@@H](CC(=O)O)Cc2ccc(CP(=O)(O)O)cc2)CCN(C(=O)CCCCc2ccccc2)CC1)C(=O)NCCCc1ccc2ccccc2c1 | 2180 nM
2 | COC(=O)N1CCC(NC(=O)[C@@H](CC(=O)O)Cc2ccc(CP(=O)(O)O)cc2)(C(=O)N[C@@H](CC(N)=O)C(=O)NCCCc2ccc3ccccc3c2)CC1 | 106 nM
3 | COCCOC(=O)N1CCC(NC(=O)[C@@H](CC(=O)O)Cc2ccc(CP(=O)(O)O)cc2)(C(=O)N[C@@H](CC(N)=O)C(=O)NCCCc2ccc3ccccc3c2)CC1 | 202 nM
4 | NC(=O)C[C@H](NC(=O)C1(NC(=O)[C@@H](CC(=O)O)Cc2ccc(CP(=O)(O)O)cc2)CCN(C(=O)NCCc2ccccc2)CC1)C(=O)NCCCc1ccc2ccccc2c1 | 272 nM
5 | NC(=O)C[C@H](NC(=O)C1(NC(=O)[C@@H](CC(=O)O)Cc2ccc(CP(=O)(O)O)cc2)CCN(C(=O)OCc2ccc(C(=O)O)cc2)CC1)C(=O)NCCCc1ccc2ccccc2c1 | 871 nM
6 | NC(=O)C[C@H](NC(=O)C1(NC(=O)[C@@H](CC(=O)O)Cc2ccc(CP(=O)(O)O)cc2)CCN(C(=O)OCc2ccccc2)CC1)C(=O)NCCCc1ccc2ccccc2c1 | 320 nM
7 | NC(=O)C[C@H](NC(=O)C1(NC(=O)[C@@H](CC(=O)O)Cc2ccc(CP(=O)(O)O)cc2)CCN(C(=O)OCCc2ccccc2)CC1)C(=O)NCCCc1ccc2ccccc2c1 | 36 nM
8 | NC(=O)C[C@H](NC(=O)C1(NC(=O)[C@@H](CC(=O)O)Cc2ccc(CP(=O)(O)O)cc2)CCN(C(=O)CCCc2ccccc2)CC1)C(=O)NCCCc1ccc2ccccc2c1 | 27 nM
9 | Cc1ccc2c(ccn2CCC(=O)N2CCC(NC(=O)[C@@H](CC(=O)O)Cc3ccc(CP(=O)(O)O)cc3)(C(=O)N[C@@H](CC(N)=O)C(=O)NCCCc3ccc4ccccc4c3)CC2)c1 | 458 nM
10 | NC(=O)C[C@H](NC(=O)C1(NC(=O)[C@@H](CC(=O)O)Cc2ccc(CP(=O)(O)O)cc2)CCN(S(=O)(=O)CCc2ccccc2)CC1)C(=O)NCCCc1ccc2ccccc2c1 | 2140 nM
